Data from PubChem BioAssay (NCI).
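These data come from cells grown in 96-well plates and exposed to compound for 48 hours at five concentrations. The concentration for full growth arrest is given as TGI.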

tested on: HCC-2998 colon; test: growth of human tumour cells (NCI), 48 h

SMILES | TGI [µM]
Nc1nc(Cl)cc(NCCO)n1 | > 100
CN(C)C1=Nc2ccccc2C(=S)N2CSCC12 (stereo not drawn) | > 100
O=C(c1ccccc1)c1c(-c2ccccc2)[nH]n(-c2ccc([N+](=O)[O-])cc2)c(=O)c1=O | > 100
COc1cccc(CCn2c(N)c(-c3ccccc3)c3ccc([N+](=O)[O-])cc3c2=O)c1 | 24.8

tested on: HCT-15 colon; test: growth of human tumour cells (NCI), 48 h

SMILES | TGI [µM]
CCOC(=O)CC1CCN(C(=O)c2ccccc2)C2Cc3c([nH]c4ccccc34)C12C[N+](=O)[O-] (stereo not drawn) | > 100
Nc1nc(Cl)cc(NCCO)n1 | > 100
Clc1ccc(Cl)c(Nc2ccnc(SCc3ccccc3)n2)c1 | > 100
CN(C)C1=Nc2ccccc2C(=S)N2CSCC12 (stereo not drawn) | > 100
O=C(c1ccccc1)c1c(-c2ccccc2)[nH]n(-c2ccc([N+](=O)[O-])cc2)c(=O)c1=O | > 100
C/C(=N\Nc1cc(CN2CCCC2)c(-c2ccc(Cl)cc2)nn1)C(=O)O | > 100
COc1cccc(CCn2c(N)c(-c3ccccc3)c3ccc([N+](=O)[O-])cc3c2=O)c1 | 27.9

tested on: OVCAR-3 ovarian; test: growth of human tumour cells (NCI), 48 h

SMILES | TGI [µM]
Nc1nc(Cl)cc(NCCO)n1 | > 100
Clc1ccc(Cl)c(Nc2ccnc(SCc3ccccc3)n2)c1 | > 100
CN(C)C1=Nc2ccccc2C(=S)N2CSCC12 (stereo not drawn) | > 100
O=C(c1ccccc1)c1c(-c2ccccc2)[nH]n(-c2ccc([N+](=O)[O-])cc2)c(=O)c1=O | > 100
C/C(=N\Nc1cc(CN2CCCC2)c(-c2ccc(Cl)cc2)nn1)C(=O)O | > 100
COc1cccc(CCn2c(N)c(-c3ccccc3)c3ccc([N+](=O)[O-])cc3c2=O)c1 | 6.51

tested on: UACC-257 melanoma; test: growth of human tumour cells (NCI), 48 h

SMILES | TGI [µM]
CCOC(=O)CC1CCN(C(=O)c2ccccc2)C2Cc3c([nH]c4ccccc34)C12C[N+](=O)[O-] (stereo not drawn) | > 100
Nc1nc(Cl)cc(NCCO)n1 | > 100
Clc1ccc(Cl)c(Nc2ccnc(SCc3ccccc3)n2)c1 | > 100
CN(C)C1=Nc2ccccc2C(=S)N2CSCC12 (stereo not drawn) | > 100
O=C(c1ccccc1)c1c(-c2ccccc2)[nH]n(-c2ccc([N+](=O)[O-])cc2)c(=O)c1=O | > 100
C/C(=N\Nc1cc(CN2CCCC2)c(-c2ccc(Cl)cc2)nn1)C(=O)O | > 100
COc1cccc(CCn2c(N)c(-c3ccccc3)c3ccc([N+](=O)[O-])cc3c2=O)c1 | 40.8

tested on: SK-MEL-2 melanoma; test: growth of human tumour cells (NCI), 48 h

SMILES | TGI [µM]
CCOC(=O)CC1CCN(C(=O)c2ccccc2)C2Cc3c([nH]c4ccccc34)C12C[N+](=O)[O-] (stereo not drawn) | > 100
Nc1nc(Cl)cc(NCCO)n1 | > 100
Clc1ccc(Cl)c(Nc2ccnc(SCc3ccccc3)n2)c1 | > 100
CN(C)C1=Nc2ccccc2C(=S)N2CSCC12 (stereo not drawn) | > 100
O=C(c1ccccc1)c1c(-c2ccccc2)[nH]n(-c2ccc([N+](=O)[O-])cc2)c(=O)c1=O | 61.5
C/C(=N\Nc1cc(CN2CCCC2)c(-c2ccc(Cl)cc2)nn1)C(=O)O | > 100
COc1cccc(CCn2c(N)c(-c3ccccc3)c3ccc([N+](=O)[O-])cc3c2=O)c1 | 48.4

tested on: IGROV1 ovarian; test: growth of human tumour cells (NCI), 48 h

SMILES | TGI [µM]
CCOC(=O)CC1CCN(C(=O)c2ccccc2)C2Cc3c([nH]c4ccccc34)C12C[N+](=O)[O-] (stereo not drawn) | > 100
Nc1nc(Cl)cc(NCCO)n1 | > 100
Clc1ccc(Cl)c(Nc2ccnc(SCc3ccccc3)n2)c1 | > 100
CN(C)C1=Nc2ccccc2C(=S)N2CSCC12 (stereo not drawn) | 52.3
O=C(c1ccccc1)c1c(-c2ccccc2)[nH]n(-c2ccc([N+](=O)[O-])cc2)c(=O)c1=O | > 100
C/C(=N\Nc1cc(CN2CCCC2)c(-c2ccc(Cl)cc2)nn1)C(=O)O | > 100
COc1cccc(CCn2c(N)c(-c3ccccc3)c3ccc([N+](=O)[O-])cc3c2=O)c1 | 23.4

tested on: SF-295 CNS; test: growth of human tumour cells (NCI), 48 h

SMILES | TGI [µM]
CCOC(=O)CC1CCN(C(=O)c2ccccc2)C2Cc3c([nH]c4ccccc34)C12C[N+](=O)[O-] (stereo not drawn) | > 100
Nc1nc(Cl)cc(NCCO)n1 | > 100
Clc1ccc(Cl)c(Nc2ccnc(SCc3ccccc3)n2)c1 | > 100
CN(C)C1=Nc2ccccc2C(=S)N2CSCC12 (stereo not drawn) | > 100
O=C(c1ccccc1)c1c(-c2ccccc2)[nH]n(-c2ccc([N+](=O)[O-])cc2)c(=O)c1=O | > 100
C/C(=N\Nc1cc(CN2CCCC2)c(-c2ccc(Cl)cc2)nn1)C(=O)O | > 100
COc1cccc(CCn2c(N)c(-c3ccccc3)c3ccc([N+](=O)[O-])cc3c2=O)c1 | 22.7

tested on: UACC-62 melanoma; test: growth of human tumour cells (NCI), 48 h

SMILES | TGI [µM]
CCOC(=O)CC1CCN(C(=O)c2ccccc2)C2Cc3c([nH]c4ccccc34)C12C[N+](=O)[O-] (stereo not drawn) | > 100
Nc1nc(Cl)cc(NCCO)n1 | > 100
Clc1ccc(Cl)c(Nc2ccnc(SCc3ccccc3)n2)c1 | > 100
CN(C)C1=Nc2ccccc2C(=S)N2CSCC12 (stereo not drawn) | > 100
O=C(c1ccccc1)c1c(-c2ccccc2)[nH]n(-c2ccc([N+](=O)[O-])cc2)c(=O)c1=O | > 100
C/C(=N\Nc1cc(CN2CCCC2)c(-c2ccc(Cl)cc2)nn1)C(=O)O | > 100
COc1cccc(CCn2c(N)c(-c3ccccc3)c3ccc([N+](=O)[O-])cc3c2=O)c1 | 30.7

tested on: HT29 colon; test: growth of human tumour cells (NCI), 48 h

SMILES | TGI [µM]
CCOC(=O)CC1CCN(C(=O)c2ccccc2)C2Cc3c([nH]c4ccccc34)C12C[N+](=O)[O-] (stereo not drawn) | > 100
Nc1nc(Cl)cc(NCCO)n1 | > 100
Clc1ccc(Cl)c(Nc2ccnc(SCc3ccccc3)n2)c1 | > 100
CN(C)C1=Nc2ccccc2C(=S)N2CSCC12 (stereo not drawn) | > 100
O=C(c1ccccc1)c1c(-c2ccccc2)[nH]n(-c2ccc([N+](=O)[O-])cc2)c(=O)c1=O | > 100
C/C(=N\Nc1cc(CN2CCCC2)c(-c2ccc(Cl)cc2)nn1)C(=O)O | > 100
COc1cccc(CCn2c(N)c(-c3ccccc3)c3ccc([N+](=O)[O-])cc3c2=O)c1 | 27.4

tested on: HL-60(TB) leukemia; test: growth of human tumour cells (NCI), 48 h

SMILES | TGI [µM]
CCOC(=O)CC1CCN(C(=O)c2ccccc2)C2Cc3c([nH]c4ccccc34)C12C[N+](=O)[O-] (stereo not drawn) | > 100
O=C(c1ccccc1)c1c(-c2ccccc2)[nH]n(-c2ccc([N+](=O)[O-])cc2)c(=O)c1=O | > 100
C/C(=N\Nc1cc(CN2CCCC2)c(-c2ccc(Cl)cc2)nn1)C(=O)O | > 100
COc1cccc(CCn2c(N)c(-c3ccccc3)c3ccc([N+](=O)[O-])cc3c2=O)c1 | 27.3

tested on: T-47D breast; test: growth of human tumour cells (NCI), 48 h

SMILES | TGI [µM]
CCOC(=O)CC1CCN(C(=O)c2ccccc2)C2Cc3c([nH]c4ccccc34)C12C[N+](=O)[O-] (stereo not drawn) | > 100
Nc1nc(Cl)cc(NCCO)n1 | > 100
Clc1ccc(Cl)c(Nc2ccnc(SCc3ccccc3)n2)c1 | > 100
CN(C)C1=Nc2ccccc2C(=S)N2CSCC12 (stereo not drawn) | > 100
O=C(c1ccccc1)c1c(-c2ccccc2)[nH]n(-c2ccc([N+](=O)[O-])cc2)c(=O)c1=O | > 100
C/C(=N\Nc1cc(CN2CCCC2)c(-c2ccc(Cl)cc2)nn1)C(=O)O | > 100
COc1cccc(CCn2c(N)c(-c3ccccc3)c3ccc([N+](=O)[O-])cc3c2=O)c1 | 5.6

tested on: U251 CNS; test: growth of human tumour cells (NCI), 48 h

SMILES | TGI [µM]
CCOC(=O)CC1CCN(C(=O)c2ccccc2)C2Cc3c([nH]c4ccccc34)C12C[N+](=O)[O-] (stereo not drawn) | > 100
Nc1nc(Cl)cc(NCCO)n1 | > 100
Clc1ccc(Cl)c(Nc2ccnc(SCc3ccccc3)n2)c1 | > 100
CN(C)C1=Nc2ccccc2C(=S)N2CSCC12 (stereo not drawn) | > 100
O=C(c1ccccc1)c1c(-c2ccccc2)[nH]n(-c2ccc([N+](=O)[O-])cc2)c(=O)c1=O | > 100
C/C(=N\Nc1cc(CN2CCCC2)c(-c2ccc(Cl)cc2)nn1)C(=O)O | > 100
COc1cccc(CCn2c(N)c(-c3ccccc3)c3ccc([N+](=O)[O-])cc3c2=O)c1 | 36.5

tested on: SN12C renal; test: growth of human tumour cells (NCI), 48 h

SMILES | TGI [µM]
CCOC(=O)CC1CCN(C(=O)c2ccccc2)C2Cc3c([nH]c4ccccc34)C12C[N+](=O)[O-] (stereo not drawn) | > 100
Nc1nc(Cl)cc(NCCO)n1 | > 100
Clc1ccc(Cl)c(Nc2ccnc(SCc3ccccc3)n2)c1 | > 100
CN(C)C1=Nc2ccccc2C(=S)N2CSCC12 (stereo not drawn) | > 100
O=C(c1ccccc1)c1c(-c2ccccc2)[nH]n(-c2ccc([N+](=O)[O-])cc2)c(=O)c1=O | > 100
C/C(=N\Nc1cc(CN2CCCC2)c(-c2ccc(Cl)cc2)nn1)C(=O)O | > 100
COc1cccc(CCn2c(N)c(-c3ccccc3)c3ccc([N+](=O)[O-])cc3c2=O)c1 | 1.53

tested on: MCF7 breast; test: growth of human tumour cells (NCI), 48 h

SMILES | TGI [µM]
CCOC(=O)CC1CCN(C(=O)c2ccccc2)C2Cc3c([nH]c4ccccc34)C12C[N+](=O)[O-] (stereo not drawn) | > 100
Nc1nc(Cl)cc(NCCO)n1 | > 100
Clc1ccc(Cl)c(Nc2ccnc(SCc3ccccc3)n2)c1 | > 100
CN(C)C1=Nc2ccccc2C(=S)N2CSCC12 (stereo not drawn) | > 100
O=C(c1ccccc1)c1c(-c2ccccc2)[nH]n(-c2ccc([N+](=O)[O-])cc2)c(=O)c1=O | > 100
C/C(=N\Nc1cc(CN2CCCC2)c(-c2ccc(Cl)cc2)nn1)C(=O)O | > 100
COc1cccc(CCn2c(N)c(-c3ccccc3)c3ccc([N+](=O)[O-])cc3c2=O)c1 | 12.7

tested on: CCRF-CEM leukemia; test: growth of human tumour cells (NCI), 48 h

SMILES | TGI [µM]
CCOC(=O)CC1CCN(C(=O)c2ccccc2)C2Cc3c([nH]c4ccccc34)C12C[N+](=O)[O-] (stereo not drawn) | 51.3
Clc1ccc(Cl)c(Nc2ccnc(SCc3ccccc3)n2)c1 | > 100
CN(C)C1=Nc2ccccc2C(=S)N2CSCC12 (stereo not drawn) | 45.1
O=C(c1ccccc1)c1c(-c2ccccc2)[nH]n(-c2ccc([N+](=O)[O-])cc2)c(=O)c1=O | > 100
C/C(=N\Nc1cc(CN2CCCC2)c(-c2ccc(Cl)cc2)nn1)C(=O)O | > 100
COc1cccc(CCn2c(N)c(-c3ccccc3)c3ccc([N+](=O)[O-])cc3c2=O)c1 | 43

tested on: MALME-3M melanoma; test: growth of human tumour cells (NCI), 48 h

SMILES | TGI [µM]
CCOC(=O)CC1CCN(C(=O)c2ccccc2)C2Cc3c([nH]c4ccccc34)C12C[N+](=O)[O-] (stereo not drawn) | > 100
